Consider two molecules from ChEMBL document CHEMBL4627275, “Inhibition of cholesteryl ester synthesis by polyacetylenes from Atractylodes rhizome” (Bioorg Med Chem Lett, 2020).

SMILES strings stand for the structures. Activity calls are given as the source filed them. The calls are words filed in the database; no cut-off is given here. A value given as a limit tells only on which side of the number the result lay.

For assay [1], the system named is CHO-K1. Kind of assay: Inhibition of [14C]triglyceride biosynthesis in CHOK1 cells using [14C]Oleic acid as substrate after 6 hrs by TLC method. In kind it is functional, cell-based. The conditions noted are these: Cricetulus griseus, CHO-K1, 6 h.
Assay [2] concerns CHO-K1. As to the kind of experiment: Inhibition of [14C]cholesterol ester biosynthesis in CHOK1 cells using [14C]Oleic acid as substrate after 6 hrs by TLC method. The conditions noted are these: Cricetulus griseus, CHO-K1, 6 h. It is filed as functional, cell-based.
In assay [3] the test system is CHO-K1. As to the kind of experiment: Effect on lipid droplet accumulation in CHOK1 cells at >100 uM preincubated with oleic acid for 12 hrs followed by replacement of fresh medium containing compounds and measured after 6 hrs by oil red O staining based confocal laser scanning microscopy. It is filed as functional, cell-based. The conditions noted are these: Cricetulus griseus.

Assay [4] deals with T1, Sterol O-acyltransferase 2 (Homo sapiens, UniProt O75908).
T1 sequence (O75908 whole entry): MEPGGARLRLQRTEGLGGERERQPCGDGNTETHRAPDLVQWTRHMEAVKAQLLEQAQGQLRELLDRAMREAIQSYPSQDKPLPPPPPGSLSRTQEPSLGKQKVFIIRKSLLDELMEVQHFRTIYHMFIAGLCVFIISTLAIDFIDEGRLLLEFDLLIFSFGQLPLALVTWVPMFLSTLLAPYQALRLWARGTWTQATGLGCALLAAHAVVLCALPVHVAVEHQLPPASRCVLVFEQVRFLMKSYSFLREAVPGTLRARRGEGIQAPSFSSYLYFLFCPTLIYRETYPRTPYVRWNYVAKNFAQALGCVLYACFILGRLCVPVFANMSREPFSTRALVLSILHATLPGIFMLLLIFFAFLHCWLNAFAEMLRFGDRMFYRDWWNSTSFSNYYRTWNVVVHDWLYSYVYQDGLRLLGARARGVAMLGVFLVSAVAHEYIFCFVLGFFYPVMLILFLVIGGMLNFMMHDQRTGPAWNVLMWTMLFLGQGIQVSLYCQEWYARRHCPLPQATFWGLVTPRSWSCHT
As to the kind of experiment: Inhibition of human SOAT2-mediated [14C]Cholesterol ester biosynthesis in CHO microsomal fraction after 5 mins in presence of [1-14C]oleoyl-CoA by TLC analysis.

The target in assay [5] is T1, Sterol O-acyltransferase 2. Kind of assay: Inhibition of human SOAT2-mediated [14C]Cholesterol ester synthesis in CHO cells after 6 hrs in presence of [14C]Oleic acid by TLC analysis. It is filed as cell-based.
Assay [6] relates to CHO-K1. As to the kind of experiment: Cytotoxicity against CHOK1 cells assessed as reduction in cell viability. It is filed as cell-based. The conditions noted are these: Cricetulus griseus.
Assay [7] in a line: (§1) Inhibition of SOAT in CHOK1 microsomes. Further details: species or system Cricetulus griseus. The conditions noted are these: cho-k1.
Assay [8] has as its target T2, Sterol O-acyltransferase 1 (Homo sapiens, UniProt P35610).
T2 sequence (P35610 whole entry): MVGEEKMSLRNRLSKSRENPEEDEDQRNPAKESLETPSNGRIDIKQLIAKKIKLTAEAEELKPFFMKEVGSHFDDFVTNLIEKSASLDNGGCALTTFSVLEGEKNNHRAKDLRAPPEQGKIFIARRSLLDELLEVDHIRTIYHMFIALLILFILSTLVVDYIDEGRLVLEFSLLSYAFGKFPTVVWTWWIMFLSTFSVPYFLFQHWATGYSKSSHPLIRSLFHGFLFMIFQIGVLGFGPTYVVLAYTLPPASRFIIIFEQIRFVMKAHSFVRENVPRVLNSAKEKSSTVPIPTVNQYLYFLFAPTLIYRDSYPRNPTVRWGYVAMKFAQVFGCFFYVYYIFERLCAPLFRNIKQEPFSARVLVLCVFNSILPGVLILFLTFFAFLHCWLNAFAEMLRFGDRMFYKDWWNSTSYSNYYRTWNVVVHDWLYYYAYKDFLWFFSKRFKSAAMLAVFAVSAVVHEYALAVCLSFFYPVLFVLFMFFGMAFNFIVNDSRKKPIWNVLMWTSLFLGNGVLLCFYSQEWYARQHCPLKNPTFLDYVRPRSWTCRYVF
As to the kind of experiment: Inhibition of human SOAT1-mediated [14C]Cholesterol ester biosynthesis in CHO microsomal fraction after 5 mins in presence of [1-14C]oleoyl-CoA by TLC analysis.

The target of assay [9] is T2, Sterol O-acyltransferase 1. Kind of assay: Inhibition of human SOAT1 mediated [14C]Cholesterol ester synthesis in CHO cells after 6 hrs in presence of [14C]Oleic acid by TLC analysis. It is filed as cell-based.
The test system of assay [10] is CHO-K1. The description is as §1. The conditions noted are these: Cricetulus griseus.

In the case of `C=C1CCC[C@]2(C)C[C@]3(O)OC(=O)C(C)=C3C[C@@H]12` [ATRACTYLENOLIDE III], the IC50 is greater than 195 µM in the assay with CHO-K1 [1]; 73.5 µM in the assay on CHO-K1 [2]; 101 µM in assay [4]; 187 µM in [5]; greater than 195 µM in the assay with CHO-K1 [6]; 211 µM in assay [7]. Moreover, the outcome with CHO-K1 [3] was inactive.

Regarding `CC(=O)OCCC(/C=C/C=C/C#CC#C/C=C/CO)OC(=O)C=C(C)C` (configuration not stated), the IC50 with CHO-K1 [1] was greater than 136 µM; in assay [8] it was 4.7 µM; in the assay with CHO-K1 [2], 35.4 µM; in [9], 32.8 µM; in assay [4] it was 11.5 µM; in assay [5], 36.2 µM. Moreover, the IC50 in the assay on CHO-K1 [6] turned out to be 111 µM; in assay [7], 29 µM. Moreover, in the assay with CHO-K1 [3], the result was inactive. Moreover, the inhibition result in the assay on CHO-K1 [10] is “Dose-dependent effect”.
